Here are results for 19 molecules from patent US9340493B2, “Hydroxamic acid derivatives useful as antibacterial agents” (Pfizer Inc., priority 2008, dated 2016).

For one assay, the system named is P. aeruginosa PAO280. In words: MIC determination, P. aeruginosa PAO280. The conditions noted are these: Pseudomonas aeruginosa, PAO280, read-out: MIC (ug/mL) P. aeruginosa PAO280. Type of assay: cell-based. The procedure:
(§1) MIC determinations: The in vitro antibacterial activity of compounds described in the Examples was evaluated by minimum inhibitory concentration (MIC) testing according to Clinical and Laboratory Standards Institute (CLSI, formerly NCCLS) guidelines. See: Clinical and Laboratory Standards Institute. Methods for Dilution Antimicrobial Susceptibility Tests for Bacteria that Grow Aerobically; Approved Standard-Seventh Edition. CLSI document M7-A7 [ISBN 1-56238-587-9]. Clinical and Laboratory Standards Institute, 940 West Valley Road, Suite 1400, Wayne, Pa. 19087-1898 USA, 2006; also Clinical and Laboratory Standards Institute. Performance Standards for Antimicrobial Susceptibility Testing; Eighteenth Informational Supplement. CLSI document M100-S18 [ISBN1-56238-653-0]. Clinical and Laboratory Standards Institute.
(§2) The following bacterial strains were used:
Pseudomonas aeruginosa PA0280: lacks efflux pumps MexAB-oprM, MexXY and MexZ

Another assay has as its system P. aeruginosa UI-18. In words: MIC determination, P. aeruginosa UI-18. Type of assay: cell-based. Particulars: Pseudomonas aeruginosa, UI18; wild-type; * = arithmetic mean of 2-6 MIC determinations; read-out: MIC (ug/mL) P. aeruginosa UI-18. The procedure: as §1, §2
P. aeruginosa UI-18: Wild-type;

The subject of assay [1] is Staphylococcus aureus ATCC 29213. In words: MIC determination, S. aureus ATCC 29213. The assay is classed as cell-based. Particulars: ATCC29213, CLSI quality control reference strain, * = arithmetic mean of 2-6 MIC determinations, read-out: MIC (ug/mL) S. aureus ATCC 29213. The procedure: as §1, §2
Staphylococcus aureus ATCC 29213: CLSI quality control reference strain; and […]

The target of assay [2] is T1, Pseudomonas aeruginosa LpxC enzyme (Pseudomonas aeruginosa, UniProt P47205).
T1 construct: made in house; host or cells: E. coli
T1 sequence (P47205 1-303): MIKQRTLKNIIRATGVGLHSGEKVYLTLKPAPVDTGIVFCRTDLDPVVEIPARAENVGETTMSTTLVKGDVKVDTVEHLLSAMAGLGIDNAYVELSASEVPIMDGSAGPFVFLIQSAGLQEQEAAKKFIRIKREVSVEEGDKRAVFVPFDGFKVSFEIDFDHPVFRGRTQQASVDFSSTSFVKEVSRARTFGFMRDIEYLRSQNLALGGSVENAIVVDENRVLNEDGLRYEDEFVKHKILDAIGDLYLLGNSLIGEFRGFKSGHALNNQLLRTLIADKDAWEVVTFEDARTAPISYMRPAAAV
In words: IC50 assay, LpxC enzyme from P. aeruginosa. Type of assay: biochemical. The conditions noted are these: 0.5 nM enzyme, 25° C., pH 8.0, 20 min; ** = average of 2-8 assays. The procedure:
IC50 assay, LpxC enzyme from P. aeruginosa: IC50 determination in the LpxC enzyme assay was carried out in a similar manner to that described by S. A. Hyland et al., J. Bacteriology 1997, 179, 2029-2037. [See also T. Kline et al., J. Medicinal Chemistry 2002, 45, 3112-3129.] Briefly, Pseudomonas aeruginosa LpxC enzyme (0.5 nM) purified from E. coli-overexpressing bacteria was incubated at 25° C. in a final volume of 25 ul containing 0.5 uM UDP-3-O—(R-3-hydroxydecanoyl)-N—[^3H-acetyl]glucosamine (B. D. Maxwell and J. C. Bronstein, J. Labeled Compounds and Radiopharmaceuticals 2005, 48, 1049-1054), 1 mg/ml BSA, and 50 mM sodium phosphate buffer, pH 8.0 in the presence and absence of inhibitor compound. At the end of 20 min, 90 ul of a pre-mixed 3% suspension of activated charcoal in 100 mM sodium acetate, pH 7.5, was added to stop the enzyme reaction. The contents of the well were transferred to a filter plate and filtered, and an aliquot of the filtrate was quantitated by liquid scintillation spectrometry. A no-enzyme control was subtracted in order to eliminate background counts.

By IC50 is commonly meant the concentration that inhibits the measured activity by half. A higher IC50 goes with weaker potency in that assay.

Each structure is given as a SMILES string. In brackets after ≈: the same amount, converted by molar mass.

For `COc1cccc(-c2ccc(COC(C)(CO)C(=O)NO)cc2)c1F` (stereo not shown) [Example 65, 2-[(2′-fluoro-3′-methoxybiphenyl-4-yl)methoxy]-N,3-dihydroxy-2-methylpropanamide], the results for the MIC (in the assay on P. aeruginosa PAO280; with P. aeruginosa UI-18; in assay [1]) were 1 µg/mL (≈ 2.86 µM), 64 µg/mL (≈ 183 µM) and greater than 64 µg/mL, respectively. The same molecule gave an IC50 in assay [2] of 0.00579 µM.
For `CC(OCc1ccc(-c2ccccc2)cc1)(C(=O)NO)C(=O)NC[C@@H]1CCCO1` (stereo partly drawn) [Example 75, 2-(biphenyl-4-ylmethoxy)-N-hydroxy-2-methyl-N′-[(2S)-tetrahydrofuran-2-ylmethyl]malonamide], in that order: 1 µg/mL (≈ 2.51 µM), 64 µg/mL (≈ 161 µM), greater than 64 µg/mL and 0.0126 µM.
On the same counts, the results for `Cc1nnc(CCNC(=O)C(C)(OCc2ccc(-c3ccccc3)cc2)C(=O)NO)[nH]1` (stereo not shown) [Example 79, 2-(biphenyl-4-ylmethoxy)-N-hydroxy-2-methyl-N′-[2-(5-methyl-4H-1,2,4-triazol-3-yl)ethyl]malonamide] are 1 µg/mL (≈ 2.36 µM), 64 µg/mL (≈ 151 µM), greater than 64 µg/mL and 0.00288 µM.
As for `COCCNC(=O)C(C)(OCc1ccc(-c2ccccc2)cc1)C(=O)NO` (stereo not shown) [Example 74, 2-(biphenyl-4-ylmethoxy)-N-hydroxy-N′-(2-methoxyethyl)-2-methylmalonamide], the values for the MIC (with P. aeruginosa PAO280; in the assay with P. aeruginosa UI-18; in assay [1]) were 1 µg/mL (≈ 2.69 µM), 64 µg/mL (≈ 172 µM) and greater than 64 µg/mL, respectively. This molecule yielded an IC50 in assay [2] of 0.0139 µM.
On the same counts, the results for `CC(CO)(OCc1ccc(-c2ccc(C3=NNC(=O)CC3)cc2)cc1)C(=O)NO` (stereo not shown) [Example 60, N,3-dihydroxy-2-methyl-2-{[4′-(6-oxo-1,4,5,6-tetrahydropyridazin-3-yl)biphenyl-4-yl]methoxy}propanamide] are 4 µg/mL (≈ 10.1 µM), greater than 64 µg/mL, greater than 64 µg/mL and 0.0105 µM.
For `Cc1n[nH]c(C)c1CNC(=O)C(C)(OCc1ccc(-c2ccccc2)cc1)C(=O)NO` (stereo not shown) [Example 78, 2-(biphenyl-4-ylmethoxy)-N-[(3,5-dimethyl-1H-pyrazol-4-yl)methyl]-N′-hydroxy-2-methylmalonamide], in that order: 1 µg/mL (≈ 2.37 µM), 64 µg/mL (≈ 151 µM), greater than 64 µg/mL and 0.0055 µM.
On the same counts, the results for `Cc1ccc(CNC(=O)C(C)(OCc2ccc(-c3ccccc3)cc2)C(=O)NO)cc1` (stereo not shown) [Example 72, 2-(biphenyl-4-ylmethoxy)-N-hydroxy-2-methyl-N′-(4-methylbenzyl)malonamide] are 4 µg/mL (≈ 9.56 µM), greater than 16 µg/mL, greater than 16 µg/mL and 0.0307 µM.
`C[C@@](OCc1ccc(-c2ccccc2)cc1)(C(=O)NO)[C@@H](O)c1cc(COP(=O)(O)O)on1` [Example 47, trisodium {3-[(1S,2S)-2-(biphenyl-4-ylmethoxy)-1-hydroxy-2-methyl-3-(oxidoamino)-3-oxopropyl]isoxazol-5-yl}methyl phosphate] showed a 50% inhibitory concentration (IC50) in assay [2] of 0.00565 µM.
Take `CCN1CC(CNC(=O)C(C)(OCc2ccc(-c3ccccc3)cc2)C(=O)NO)CC1=O` (stereo not shown) [Example 82, 2-(biphenyl-4-ylmethoxy)-N-[(1-ethyl-5-oxopyrrolidin-3-yl)methyl]-N′-hydroxy-2-methylmalonamide]: the MIC with P. aeruginosa PAO280 is 4 µg/mL (≈ 9.1 µM); in the assay on P. aeruginosa UI-18 it was greater than 64 µg/mL; in assay [1], greater than 64 µg/mL. In assay [2], this molecule returned an IC50 of 0.0486 µM.
For the molecule `CC(CO)(OCc1ccc(-c2cccc(F)c2)cc1)C(=O)NO` (stereo not shown) [Example 64, 2-[(3′-fluorobiphenyl-4-yl)methoxy]-N,3-dihydroxy-2-methylpropanamide], the MIC was 4 µg/mL (≈ 12.5 µM) with P. aeruginosa PAO280, greater than 64 µg/mL in the assay with P. aeruginosa UI-18 and greater than 64 µg/mL in assay [1]. Moreover, it took 0.00757 µM to reach half-maximal inhibition in assay [2] (IC50).
Consider `CN(C)S(=O)(=O)c1ccc(-c2ccc(COC(C)(CO)C(=O)NO)cc2)cc1` (stereo not shown) [Example 61, 2-({4′-[(dimethylamino)sulfonyl]biphenyl-4-yl}methoxy)-N,3-dihydroxy-2-methylpropanamide], for which the figures for the MIC (with P. aeruginosa PAO280; in the assay with P. aeruginosa UI-18; in assay [1]) were 16 µg/mL (≈ 39.2 µM), greater than 64 µg/mL and greater than 64 µg/mL, respectively. The molecule further yielded an IC50 in assay [2] of 0.0602 µM.
As to `Cn1cc(CCNC(=O)C(C)(OCc2ccc(-c3ccccc3)cc2)C(=O)NO)cn1` (stereo not shown) [Example 73, 2-(biphenyl-4-ylmethoxy)-N-hydroxy-2-methyl-N′-[2-(1-methyl-1H-pyrazol-4-yl)ethyl]malonamide], the results for the MIC (in the assay on P. aeruginosa PAO280; with P. aeruginosa UI-18; in assay [1]) were 1 µg/mL (≈ 2.37 µM), greater than 64 µg/mL and greater than 64 µg/mL, respectively. In assay [2], this molecule had a concentration for half-maximal inhibition (IC50) of 0.0156 µM.
Regarding `CC(CO)(OCc1ccc(-c2ccc(-c3csnn3)cc2)cc1)C(=O)NO` (stereo not shown) [Example 59, N,3-dihydroxy-2-methyl-2-{[4′-(1,2,3-thiadiazol-4-yl)biphenyl-4-yl]methoxy}propanamide], the MIC in the assay on P. aeruginosa PAO280 is 1 µg/mL (≈ 2.59 µM); in the assay on P. aeruginosa UI-18, greater than 64 µg/mL; in assay [1], greater than 64 µg/mL. In assay [2], this molecule showed an IC50 of 0.00402 µM.
Consider `CC(OCc1ccc(-c2ccccc2)cc1)(C(=O)NO)C(=O)NCCO` (stereo not shown) [Example 81, 2-(biphenyl-4-ylmethoxy)-N-hydroxy-N′-(2-hydroxyethyl)-2-methylmalonamide], for which the figures for the MIC (with P. aeruginosa PAO280; in the assay with P. aeruginosa UI-18; in assay [1]) were 1 µg/mL (≈ 2.79 µM), 64 µg/mL (≈ 179 µM) and greater than 64 µg/mL, respectively. In addition, the IC50 in assay [2] stood at 0.0261 µM.
For the molecule `Cc1ncsc1CCNC(=O)C(C)(OCc1ccc(-c2ccccc2)cc1)C(=O)NO` (stereo not shown) [Example 80, 2-(biphenyl-4-ylmethoxy)-N-hydroxy-2-methyl-N′-[2-(4-methyl-1,3-thiazol-5-yl)ethyl]malonamide], the values for the MIC (in the assay with P. aeruginosa PAO280; with P. aeruginosa UI-18; in assay [1]) were 0.5 µg/mL (≈ 1.14 µM), 64 µg/mL (≈ 146 µM) and greater than 64 µg/mL, respectively. Besides, 0.00899 µM corresponded to half-maximal inhibition in assay [2] (IC50).
On the same counts, the results for `CC(OCc1ccc(-c2ccccc2)cc1)(C(=O)NO)C(=O)NCC1(O)CCCC1` (stereo not shown) [Example 68, 2-(biphenyl-4-ylmethoxy)-N-hydroxy-N′-[(1-hydroxycyclopentyl)methyl]-2-methylmalonamide] are 4 µg/mL (≈ 9.7 µM), greater than 64 µg/mL, greater than 64 µg/mL and 0.0955 µM.
For `Cc1cc(F)ccc1-c1ccc(COC(C)(CO)C(=O)NO)cc1` (stereo not shown) [Example 63, 2-[(4′-fluoro-2′-methylbiphenyl-4-yl)methoxy]-N,3-dihydroxy-2-methylpropanamide], in that order: 4 µg/mL (≈ 12 µM), greater than 64 µg/mL, greater than 64 µg/mL and 0.0174 µM.
On the same counts, the results for `CC(=O)NCCNC(=O)C(C)(OCc1ccc(-c2ccccc2)cc1)C(=O)NO` (stereo not shown) [Example 77, N-(2-acetamidoethyl)-2-(biphenyl-4-ylmethoxy)-N′-hydroxy-2-methylmalonamide] are 1 µg/mL (≈ 2.5 µM), 64 µg/mL (≈ 160 µM), greater than 64 µg/mL and 0.00612 µM.
In the case of `CC(OCc1ccc(-c2ccccc2)cc1)(C(=O)NO)C(=O)NCCc1cscn1` (stereo not shown) [Example 76, 2-(biphenyl-4-ylmethoxy)-N-hydroxy-2-methyl-N′-[2-(1,3-thiazol-4-yl)ethyl]malonamide], the MIC in the assay with P. aeruginosa PAO280 is 0.5 µg/mL (≈ 1.18 µM); with P. aeruginosa UI-18, 64 µg/mL (≈ 150 µM); in assay [1], greater than 64 µg/mL. Moreover, the IC50 in assay [2] was 0.00848 µM.
